In brackets after ≈: the same amount, converted by molar mass.
Assays:
[1] = tested on: Mycobacterium tuberculosis; assay: Antimycobacterial activity against multidrug resistance Mycobacterium tuberculosis 16995 clinical isolate incubated for 7 days by microplate alamar blue assay; format: functional; conditions: Mycobacterium tuberculosis, 16995, 168 h; time 7 day
[2] = tested on: Mycobacterium tuberculosis; assay: Antimycobacterial activity against multidrug resistance Mycobacterium tuberculosis 16833 clinical isolate incubated for 7 days by microplate alamar blue assay; format: functional; conditions: Mycobacterium tuberculosis, 16833, 168 h; time 7 day
[3] = Selectivity index, ratio of CC50 for African green monkey Vero cells to MIC for multidrug resistance Mycobacterium tuberculosis 16995 clinical isolate; format: toxicity; conditions: read-out: Selectivity Index

SMILES | MIC [1] | MIC [2] | selectivity ratio [3]
CC(NN1CCN(c2nc(=O)c3cc(C(F)(F)F)cc([N+](=O)[O-])c3s2)CC1)c1ccc(OC(F)(F)F)cc1 (configuration not stated) | 0.0177 µg/mL (≈ 0.0314 µM) | 0.0196 µg/mL (≈ 0.0348 µM) | > 3620
Cc1ccc(CNN2CCN(c3nc(=O)c4cc(C(F)(F)F)cc([N+](=O)[O-])c4s3)CC2)cc1 | < 0.016 µg/mL | < 0.016 µg/mL | > 4000
CN(c1ccc(OC(F)(F)F)cc1)N1CCN(c2nc(=O)c3cc(C(F)(F)F)cc([N+](=O)[O-])c3s2)CC1 | < 0.016 µg/mL | < 0.016 µg/mL | > 4000
COc1ccc(CNN2CCN(c3nc(=O)c4cc(C(F)(F)F)cc([N+](=O)[O-])c4s3)CC2)cc1 | 0.0271 µg/mL (≈ 0.0547 µM) | < 0.016 µg/mL | > 2360
CC(C)(C)c1ccc(CNN2CCN(c3nc(=O)c4cc(C(F)(F)F)cc([N+](=O)[O-])c4s3)CC2)cc1 | < 0.016 µg/mL | < 0.016 µg/mL | > 4000
O=c1nc(N2CCN(NC3CCCCC3)CC2)sc2c([N+](=O)[O-])cc(C(F)(F)F)cc12 | < 0.016 µg/mL | < 0.016 µg/mL | > 4000
C/C(=N\N1CCN(c2nc(=O)c3cc(C(F)(F)F)cc([N+](=O)[O-])c3s2)CC1)c1ccc(OC(F)(F)F)cc1 | < 0.016 µg/mL | < 0.016 µg/mL | > 4000
O=c1nc(N2CCN(CC3CCCCC3)CC2)sc2c([N+](=O)[O-])cc(C(F)(F)F)cc12 [MACOZINONE] | < 0.016 µg/mL | < 0.016 µg/mL | > 4000
CO[C@H]1/C=C/O[C@@]2(C)Oc3c(C)c(O)c4c(O)c(c(/C=N/N5CCN(C)CC5)c(O)c4c3C2=O)NC(=O)/C(C)=C\C=C\[C@H](C)[C@H](O)[C@@H](C)[C@@H](O)[C@@H](C)[C@H](OC(C)=O)[C@@H]1C [RIFAMPIN] | > 10 µg/mL | > 10 µg/mL | –
O=c1nc(N2CCN(Nc3ccc(C(F)(F)F)cc3)CC2)sc2c([N+](=O)[O-])cc(C(F)(F)F)cc12 | < 0.016 µg/mL | < 0.016 µg/mL | > 4000
O=c1nc(N2CCN(NCc3ccc(C(F)(F)F)cc3)CC2)sc2c([N+](=O)[O-])cc(C(F)(F)F)cc12 | < 0.016 µg/mL | < 0.016 µg/mL | > 4000
O=c1nc(N2CCN(NCC3CCCC3)CC2)sc2c([N+](=O)[O-])cc(C(F)(F)F)cc12 | < 0.016 µg/mL | < 0.016 µg/mL | > 4000
Cc1cccc(F)c1CNN1CCN(c2nc(=O)c3cc(C(F)(F)F)cc([N+](=O)[O-])c3s2)CC1 | 0.0163 µg/mL (≈ 0.0328 µM) | 0.0152 µg/mL (≈ 0.0306 µM) | > 3930
O=c1nc(N2CCN(NCc3ccc(OC(F)(F)F)cc3)CC2)sc2c([N+](=O)[O-])cc(C(F)(F)F)cc12 | < 0.016 µg/mL | < 0.016 µg/mL | > 4000
O=c1nc(N2CCN(NCc3cccc(C(F)(F)F)c3)CC2)sc2c([N+](=O)[O-])cc(C(F)(F)F)cc12 | < 0.016 µg/mL | < 0.016 µg/mL | > 4000
CC(C)CN(CC(C)C)N1CCN(c2nc(=O)c3cc(C(F)(F)F)cc([N+](=O)[O-])c3s2)CC1 | < 0.016 µg/mL | < 0.016 µg/mL | > 4000
O=c1nc(N2CCN(NCc3ccc(Cl)cc3)CC2)sc2c([N+](=O)[O-])cc(C(F)(F)F)cc12 | < 0.016 µg/mL | < 0.016 µg/mL | > 4000
O=c1nc(N2CCN(NCc3ccc(Br)cc3)CC2)sc2c([N+](=O)[O-])cc(C(F)(F)F)cc12 | < 0.016 µg/mL | < 0.016 µg/mL | > 4000
O=c1nc(N2CCN(NCc3ccc(F)cc3)CC2)sc2c([N+](=O)[O-])cc(C(F)(F)F)cc12 | < 0.016 µg/mL | < 0.016 µg/mL | > 4000
O=c1nc(N2CCN(NCC3CCCCC3)CC2)sc2c([N+](=O)[O-])cc(C(F)(F)F)cc12 | < 0.016 µg/mL | < 0.016 µg/mL | > 1830
CN(CC1CCCCC1)N1CCN(c2nc(=O)c3cc(C(F)(F)F)cc([N+](=O)[O-])c3s2)CC1 | < 0.016 µg/mL | < 0.016 µg/mL | > 4000
NNC(=O)c1ccncc1 [ISONIAZID] | > 10 µg/mL | > 10 µg/mL | –
O=c1nc(N2CCN(NCCC3CCCCC3)CC2)sc2c([N+](=O)[O-])cc(C(F)(F)F)cc12 | 0.0294 µg/mL (≈ 0.0606 µM) | 0.0357 µg/mL (≈ 0.0735 µM) | > 2180
CC(c1ccc(OC(F)(F)F)cc1)N(C)N1CCN(c2nc(=O)c3cc(C(F)(F)F)cc([N+](=O)[O-])c3s2)CC1 (configuration not stated) | < 0.016 µg/mL | < 0.016 µg/mL | > 4000
CON=C1CCC(N(C)N2CCN(c3nc(=O)c4cc(C(F)(F)F)cc([N+](=O)[O-])c4s3)CC2)CC1 (configuration not stated) | < 0.016 µg/mL | < 0.016 µg/mL | > 4000
O=c1nc(N2CCN(NCc3cc(F)cc(F)c3)CC2)sc2c([N+](=O)[O-])cc(C(F)(F)F)cc12 | < 0.016 µg/mL | < 0.016 µg/mL | > 4000
O=c1nc(N2CCN(/N=C/c3ccc(OC(F)(F)F)cc3)CC2)sc2c([N+](=O)[O-])cc(C(F)(F)F)cc12 | < 0.016 µg/mL | < 0.016 µg/mL | > 4000
O=c1nc(N2CCN(Nc3ccc(OC(F)(F)F)cc3)CC2)sc2c([N+](=O)[O-])cc(C(F)(F)F)cc12 | < 0.016 µg/mL | < 0.016 µg/mL | > 4000

Reference: ChEMBL document CHEMBL4814047, “Design, synthesis and biological activity of N-(amino)piperazine-containing benzothiazinones against Mycobacterium tuberculosis” (Eur J Med Chem, 2021)
